Data set [1] has as its system SKBR-3 cells. Kind of data set: ADCC assay (LDH cytotoxicity) with SKBR-3 cells pre-incubated with glycosylation inhibitors. In kind it is cell-based. As for the experimental part: (§1) SKBR-3 and SKOV-3 cells were cultured on 96-well plates in recommended conditions and incubated with or without glycosylation inhibitors or ADCs for four days as described above. […] After 3.5 h at +37° C., cytotoxicity was assessed with commercial lactate dehydrogenase assay kit (Cytotoxicity detection kit (LDH), Thermo Fischer Scientific) and the cytotoxicities were calculated as proportion of killed cells (%, average of three parallel wells).

In data set [2] the test system is HSC-2 cancer cells. The data set can be described thus: FACS staining of HSC-2 cells with lectins, Galectin-1 and Siglec-7 after incubation with glycosylation inhibitors. In kind it is cell-based. The settings on record: 2 days, compared to untreated cells; for sialylation/Siglec-7 ligand glycosylation, SNA-I and Siglec-7 staining: 200 μM; for Galectin-1 ligand glycosylation, lectin and Galectin-1 staining: 100 μM. As for the experimental part:
In another experiment, HSC-2 cancer cells were cultured for two days, after which glycosylation inhibitors were added to the cell culture medium: 200 μM β-3-Fax-Neu5Ac and 100 μM β-4-F-GlcNAc. The cells were then cultured for 2 days with inhibitors. In parallel, untreated cells were cultured in normal cell culture medium. For flow cytometry analysis cells were detached with trypsin, washed, and stained with FITC-conjugated lectins, AlexaFluor488-conjugated Galectin-1 and recombinant human Siglec-7 (R&D Systems) at +4° C. for 30-45 minutes (the Siglec-samples were further stained with AlexaFluor488-conjugated anti-human IgG antibody at +4° C. for 30-45 minutes). FACS was performed as above.

Data set [3] relates to SKOV-3 ovarian carcinoma cells. The data set can be described thus: FACS staining of SKOV-3 cells with labeled lectins and Galectins after incubation with glycosylation inhibitors. The data set is classed as cell-based. The conditions noted are these: compared to untreated cells; for cell surface sialylation, SNA-I-FITC lectin staining: 100 μM, 3 days; for Galectin ligand expression, LEA-FITC, Galectin-1 and Galectin-3 staining: 50 μM, 4 days. How it is done:
SKOV-3 ovarian carcinoma cells (ATCC, Manassas, Va., USA) were cultured according to ATCC's instructions and incubated in the presence of either 50 μM 2-acetamido-2,4-dideoxy-4-fluoro-1,3,6-tri-O-acetyl-D-glucose for 4 days (β-4-F-GlcNAc; Sussex Research, Ottawa, Canada), 100 μM 5-acetamido-3,5-dideoxy-3-fluoro-2,4,7,8,9-penta-O-acetyl-D-erythro-L-manno-2-nonulosonic acid methyl ester (β-3-Fax-Neu5Ac; Tocris Bioscience, Abingdon, United Kingdom) for 3 days, or DMSO carrier control in parallel. After the incubation, cells were stained with fluorescein-labeled lectins SNA-I-FITC for α2,6-sialylation, LEA-FITC for poly-N-acetyllactos-amines (both from EY Labs, San Mateo, Calif., USA), Alexa Fluor 488-conjugated human recombinant Galectin-1, and Alexa Fluor 488-conjugated human recombinant Galectin-3 (both from Abcam, Cambridge, United Kingdom). Cells were washed and stored on ice in the dark until analysed by FACSAriaII flow cytometer.

Data set [4] deals with SKOV-3 cells. The data set can be described thus: ADCC assay (LDH cytotoxicity) with SKOV-3 cells pre-incubated with glycosylation inhibitors. In kind it is cell-based. As for the experimental part: as §1
The test system of data set [5] is SKBR-3 cells. Kind of data set: N-glycan profiling by MALDI-TOF MS, high-mannose N-glycans (mannosidase I inhibition). The data set is classed as cell-based. The settings on record: 10 μM, four days, control cells 7.07.
Data set [6] relates to SKBR-3 cells.
Data set [7] deals with egg embryos. Kind of data set: Embryo toxicity in the CAM in vivo trial (% alive egg embryos). Details: species or system chicken. The conditions noted are these: alive egg embryos at end of study; same dosing; PBS control 83. As for the experimental part:
(§2) The study was performed by Inovotion SAS (La Tronche, France) as follows: Fertilized chicken eggs were incubated at 37.5° C. with 50% relative humidity for 9 days (E9), when the chorioallantoic membrane (CAM) was dropped down by drilling a small hole through the eggshell into the air sac, and a 1 cm^2 window was cut in the eggshell above the CAM. The NCI-N87 cell line was cultivated in RPMI-1640 medium supplemented with 10% FBS and 1% penicillin/streptomycin. On day E9, cells were detached by trypsin, washed with complete medium and suspended in graft medium. An inoculum of 2 million cells was added onto the CAM of each egg. […] On day 18 (E18) the upper portion of the CAM was removed, washed in PBS and then directly transferred in PFA (fixation for 48 h). The tumors were then carefully cut away from normal CAM tissue and weighed. Eggs were checked at each treatment time, or at least every two days, for viability during the study. At the end of the study, the number of dead embryos was counted and combined with the observation of eventual visible macroscopic abnormalities (observation done during the sample collection) to evaluate the toxicity.

For data set [8], the system named is NCI-N87 cancer cell line tumors. The data set can be described thus: In vivo efficacy trial, tumors on chicken egg chorioallantoic membrane (CAM). The conditions noted are these: day E18, trastuzumab and tunicamycin-ADC single dose 2.5 mg/kg, pembrolizumab […] five doses, PBS control 32.2. How it is done:
as §2

The subject of data set [9] is HER2. Kind of data set: Inhibition of HER2 glycoprotein N-glycosylation in SKBR-3 cells (SDS-PAGE, anti-HER2 immunoblot). The data set is classed as cell-based, human. The text has this:
After six days' culture, the cells were lysed and samples from each treatment were subjected to SDS-PAGE and immunoblotting with anti-HER2 antibody (anti-human ErbB2/Her2 goat polyclonal antibody AF1129, R&D Systems) with standard procedures.

[10] abbreviates: second assay, SKBR-3, 50 μM inhibitor and trastuzumab only, no effector cells.
Setting [11] is: second assay, SKBR-3, 50 μM inhibitor, trastuzumab and effector cells applied.
Setting [12] is: SKOV-3, 50 μM inhibitor and trastuzumab only, no effector cells.
Where [13] appears, read: SKOV-3, 50 μM inhibitor, trastuzumab and effector cells applied.

With `COC(=O)C1(OC(C)=O)O[C@@H]([C@H](OC(C)=O)[C@@H](COC(C)=O)OC(C)=O)[C@H](NC(C)=O)[C@@H](OC(C)=O)[C@H]1F` (stereo partly drawn) [P-3Fax-Neu5Ac, 5-acetamido-3,5-dideoxy-3-fluoro-2,4,7,8,9-penta-O-acetyl-D-erythro-L-manno-2-nonulosonic acid methyl ester], in data set [1] (third assay, SKBR-3, 50 μM inhibitor, trastuzumab and effector cells applied), the “absorbance reading in the cytotoxicity assay” value is “about 0.7”. The figures for the “sialylation/Siglec-7 ligand glycosylation, SNA-I and Siglec-7 staining” value in [2] and in data set [2] (listed as β-3-Fax-Neu5Ac) were “effective inhibition” and “clearly decreased”, respectively. Besides, the “cell surface sialylation, SNA-I-FITC lectin staining” value was “effective inhibition” in [3] and “clearly decreased” in [3] (listed as β-3-Fax-Neu5Ac).

Consider `CC(=O)N[C@H]1C(OC(C)=O)O[C@H](COC(C)=O)[C@@H](F)[C@@H]1OC(C)=O` (stereo partly drawn) [P-4F-GlcNAc, 2-acetamido-2,4-dideoxy-4-fluoro-1,3,6-tri-O-acetyl-D-glucose], for which the “cytotoxicity (proportion of killed cells)” value in [1] (setting [10]) was 1-2%; in data set [1] (setting [11]) it was “about 16%”; in [4] (setting [12]), “no cytotoxicity was observed”; in data set [4] (setting [13]) it was “about 5%”. In addition, the results for the “Galectin-1 ligand glycosylation, lectin and Galectin-1 staining” value in data set [2] and in [2] (listed as β-4-F-GlcNAc) were “effective inhibition” and “clearly decreased”, respectively. The “Galectin ligand expression, LEA-FITC, Galectin-1 and Galectin-3 staining” value in data set [3] is given as “effective inhibition”; in data set [3] (listed as β-4-F-GlcNAc), “clearly decreased”.

Turning to `O=C1N[C@@H]2[C@@H](O)[C@@H](O)[C@H](O)[C@@H](CO)N2C1=O` [kifunensine], the “cytotoxicity (proportion of killed cells)” value was “no cytotoxicity was detected” in data set [1] (first assay, SKBR-3, 10 μM inhibitor and trastuzumab only, no effector cells); 18.5% in data set [1] (first assay, SKBR-3, 10 μM inhibitor, trastuzumab and effector cells applied); 2-3% in [1] (setting [10]); “about 19%” in data set [1] (setting [11]); “no cytotoxicity was observed” in data set [4] (setting [12]); “about 2%” in data set [4] (setting [13]). In addition, the “average number of mannose residues (Man) in the Man5-9GlcNAc2 glycan signal series” value in data set [5] stood at 8.56.

Regarding “omalizumab-MC-VC-PAB-DMAE-tunicamycin DAR=8 ADC: DAR=8 conjugate of MC-VC-PAB-DMAE-tunicamycin V prepared from omalizumab (negative control antibody)”, the “cytotoxicity to the cells in the viability assay” value in [6] (five or eight days, up to 1 μM) is “no apparent toxicity”.

For “pembrolizumab: pembrolizumab (Keytruda, Merck)”, the “% alive” value in [7] is listed as 58%. Moreover, the “Mean tumor size” value in [8] came out at 34.9 mg.

On to tunicamycin, for which the IC50 in data set [6] (read-out: IC50 (cellular viability), six days) came to 300 nM. The “cytotoxicity (proportion of killed cells)” value is reported as “no cytotoxicity was detected” in [1] (first assay, SKBR-3, 1 μM inhibitor and trastuzumab only, no effector cells); 40.4% in data set [1] (first assay, SKBR-3, 1 μM inhibitor, trastuzumab and effector cells applied); “about 4%” in [1] (second assay, SKBR-3, 0.5 μM inhibitor and trastuzumab only, no effector cells); “about 46%” in data set [1] (second assay, SKBR-3, 0.5 μM inhibitor, trastuzumab and effector cells applied); “about 2%” in [4] (SKOV-3, 0.5 μM inhibitor and trastuzumab only, no effector cells); “about 5%” in [4] (SKOV-3, 0.5 μM inhibitor, trastuzumab and effector cells applied). In addition, the EC50 in data set [9] (six days' incubation, immunoblot, read-out: EC50 (concentration with 50% efficacy) of decrease of relative MW of HER2, defective N-glycosylation) was 70 nM. For the same compound, the “decrease of relative MW of HER2 upon inhibition of N-glycosylation” value in data set [9] (six days, SDS-PAGE) is listed as “about 15 kDa”.

The record behind these values is US20210402002A1, “CONJUGATE” (priority 2018, published 2021).
